Data taken from patent US5904857A, “4-alkyl and aryl semicarbazides as oxygen scavengers” (Nalco Chemical Company, priority 1997, dated 1999).

Tests used:
[1] = Oxygen scavenger screening: dissolved O2 in effluent water (apparatus of FIG. 1); conditions: Equivalence Scavenger:O2 2:1, 250 ° F., feed pH 9.0-9.5
Experimental: The apparatus of FIG. 1 was utilized to evaluate the efficiency of various oxygen scavengers. Reference is made to FIG. 1. The feedstream was ambient temperature (22° C.) air-saturated deionized water. Air-saturation of the feedwater was maintained with a continuous purge with CO2 -free air. The pH of the feedwater was adjusted to within the range of 9.0-9.5 with reagent grade sodium hydroxide. All wetted parts were constructed from 316 stainless steel. Syringe infusion pumps were used for injection of scavenger and catalyst. A metering pump pressurized the flow to 85 psig. The first heating bath heated the water stream to about 214° F. in about 30 seconds. The water residence time in the second bath was 4.5 minutes, and the effluent temperature was 251° F. The water stream was cooled slightly below ambient temperature within a few seconds, the pressure was released, and the oxygen concentration of the effluent water was continuously monitored utilizing an Orbisphere oxygen probe at the exit sample point.
The data of Table 1 illustrate a remarkable reduction in dissolved O2 for the scavengers of this invention when utilized in conjunction with a catalyst in this temperature range.

[2] = Long term stability: hydrazine concentrations in high amine formulations over weeks (procedure of Example 5); assay type: physicochemical
Source text: The procedure described in Example 5 was utilized to study long term stability. […] Thus, they are more advantageous than the conventional carbohydrazide treatment.

[3] = cited from earlier work
[4] = cited from earlier work; remark: listed apart in the source
[5] = Comparative stability study: hydrazine buildup in high amine formulations over days (p-dimethylaminobenzaldehyde method, ASTM D1385-78); assay type: physicochemical
[6] = catalyst none, None (untreated) 7800-8300
[7] = 6% scavenger / 40% CHA (cyclohexylamine)
[8] = 6% scavenger in 40% cyclohexylamine

Structure (SMILES): NNC(=O)Nc1ccccc1 [4-phenyl semicarbazide]
- Dissolved O2 ([1]; catalyst Co): 4180 ppb
- Dissolved O2 ([1]; catalyst Cu): 164 ppb
- Dissolved O2 [1, 6]: 7480 ppb

Structure (SMILES): CCN(CC)C(=O)NN [4,4-diethylsemicarbazide, N,N-diethylsemicarbazide]
- Hydrazine (ppm) at 0 weeks [2, 7]: 114 ppm
- Hydrazine (ppm) at 5 weeks [2, 7]: 149 ppm
- Hydrazine (ppm) at 8 weeks ([2]; 6% scavenger / 40% CHA (cyclohexylamine), 8 weeks): 178 ppm
- Dissolved O2 ([1]; catalyst Co): 6500 ppb
- Dissolved O2 ([1]; catalyst Cu): 189 ppb
- Dissolved O2 [1, 6]: 7300 ppb

Structure (SMILES): NN [Hydrazine, hydrazine]
- absorption ([3]; Kirk-Othmer): readily absorbed through the mouth, skin and respiratory system
- toxicity ([3]; Kirk-Othmer): highly toxic
- corneal damage ([3]; contact with the eye): permanent corneal damage may result from contact with the eye
- high dose effects ([3]; high doses): high doses may cause convulsions and other damaging side effects
- low dose effects ([3]; low doses): Low doses may cause central nervous system depression
- elimination of residual oxygen ([4]; Kirk-Othmer): efficiently eliminates the residual oxygen
- metal passivation ([4]; adherent protective layer of magnetite over iron surfaces): good metal passivator
- Dissolved O2 ([1]; catalyst Cu): 241 ppb
- Dissolved O2 [1, 6]: 7500 ppb

Structure (SMILES): NNC(=O)NN [CHz, carbohydrazide]
- Hydrazine (ppm) at 0 weeks [2, 7]: 433 ppm
- Hydrazine (ppm) at 5 weeks [2, 7]: 6300 ppm
- Hydrazine (ppm) at 0 weeks ([2]; 6% scavenger / 40% morpholine): 94 ppm
- Hydrazine (ppm) at 5 weeks ([2]; 6% scavenger / 40% morpholine): 2016 ppm
- Hydrazine (ppm) at 0 days [5, 8]: 433 ppm
- Hydrazine (ppm) at 3 days [5, 8]: 1420 ppm
- Hydrazine (ppm) at 6 days [5, 8]: 2100 ppm
- Hydrazine (ppm) at 0 days ([5]; 6% scavenger in 40% morpholine): 94 ppm
- Hydrazine (ppm) at 3 days ([5]; 6% scavenger in 40% morpholine): 280 ppm
- Hydrazine (ppm) at 6 days ([5]; 6% scavenger in 40% morpholine): 465 ppm
- Hydrazine (ppm) at 0 days ([5]; 6% scavenger, no amine): 54 ppm
- Hydrazine (ppm) at 3 days ([5]; 6% scavenger, no amine): 56 ppm
- Hydrazine (ppm) at 6 days ([5]; 6% scavenger, no amine): 59 ppm

Structure (SMILES): CC(C)NC(=O)NN [4-isopropylsemicarbazide, N-isopropyl semicarbazide]
- Dissolved O2 ([1]; catalyst Co): 6500 ppb
- Dissolved O2 ([1]; catalyst Cu): 98 ppb
- Dissolved O2 [1, 6]: 7500 ppb
